Patent US20060069132A1, “Azolecarboxamide herbicides” (priority 2004, published 2006)

What was measured:
giant foxtail = assay: Test B pre-/postemergence herbicide test; assay type: in vivo, Setaria faberi; details: for Foxtail, Giant plant response rating: scale 0 (no effect) to 100 (complete control)
Procedure, shortened: (§1)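 Response was scored visually 13 to 15 days after treatment against untreated greenhouse controls, 0 meaning no effect and 100 complete control. Formulations (solvent mixture plus surfactant) went onto soil after planting, onto foliage of 1- to 4-leaf plants, and onto 2-leaf plants in a flooded paddy set including rice and barnyardgrass.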

barnyardgrass [1] = assay: Test B flooded paddy test; assay type: in vivo, Echinochloa crus-galli; details: 1000 g ai/ha, scale 0 to 100 (0 no effect, 100 complete control)
Procedure, shortened: (§2)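 Paddy species grown to the 2-leaf stage under flooding; blackgrass sprayed postemergence at 2–18 cm (1- to 4-leaf stage). Plants kept in a greenhouse for 13 to 15 days, then visually rated against controls on 0 (no effect) to 100 (complete control).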

[2] = test system: small flower umbrella sedge; assay: Test B flooded paddy test; assay type: in vivo, Cyperus difformis; details: 1000 g ai/ha, scale 0 to 100 (0 no effect, 100 complete control)
Procedure, shortened: as §2

large crabgrass = assay: Test B pre-/postemergence herbicide test; assay type: in vivo, Digitaria sanguinalis; details: for Crabgrass, Large plant response rating: scale 0 (no effect) to 100 (complete control)
Procedure, shortened: as §1

rice = assay: Test B flooded paddy test; assay type: in vivo, Oryza sativa; details: 1000 g ai/ha, scale 0 to 100 (0 no effect, 100 complete control)
Procedure, shortened: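 Postemergence plants were sprayed with formulated test chemicals at 2 to 18 cm height (1- to 4-leaf stage); paddy species were grown to the 2-leaf stage. After 13 to 15 days in a greenhouse, injury was rated visually against untreated controls on a 0–100 scale (0 = no effect, 100 = complete control).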

wild oat = assay: Test B postemergence herbicide test; assay type: in vivo, Avena fatua; details: scale 0 (no effect) to 100 (complete control)
Procedure, shortened: (§3)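 Read-out: visual comparison with controls, scored 0 to 100, where 100 means complete control and 0 no effect. Formulated chemicals were applied postemergence to plants 2–18 cm tall (1- to 4-leaf), or to flooded-paddy plants at the 2-leaf stage, then held 13 to 15 days under glass.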

barnyardgrass [3] = assay: Test B pre-/postemergence herbicide test; assay type: in vivo, Echinochloa crus-galli; details: for Barnyardgrass plant response rating: scale 0 (no effect) to 100 (complete control)
Procedure, shortened: (§4)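 Test chemicals in a non-phytotoxic solvent mixture with surfactant were applied preemergence to seeded species and postemergence to plants 2-18 cm tall (1- to 4-leaf stage); rice and barnyardgrass were also tested in a flooded paddy at the 2-leaf stage. Visual rating versus controls after 13-15 days in greenhouse, scale 0 (no effect) to 100 (complete control).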

morningglory = assay: Test B pre-/postemergence herbicide test; assay type: in vivo, Ipomoea coccinea; details: for Morningglory plant response rating: scale 0 (no effect) to 100 (complete control)
Procedure, shortened: as §4

ducksalad = assay: Test B flooded paddy test; assay type: in vivo, Heteranthera limosa; details: 1000 g ai/ha, scale 0 to 100 (0 no effect, 100 complete control)
Procedure, shortened: as §2

blackgrass = assay: Test B postemergence herbicide test; assay type: in vivo, Alopecurus myosuroides; details: scale 0 (no effect) to 100 (complete control)
Procedure, shortened: as §2

Surinam grass = assay: Test B pre-/postemergence herbicide test; assay type: in vivo, Urochloa decumbens; details: for Surinam Grass plant response rating: scale 0 (no effect) to 100 (complete control)
Procedure, shortened: as §1

lambsquarters = assay: Test B pre-/postemergence herbicide test; assay type: in vivo, Chenopodium album; details: for Lambsquarters plant response rating: scale 0 (no effect) to 100 (complete control)
Procedure, shortened: as §1

wheat = assay: Test B postemergence herbicide test; assay type: in vivo, Triticum aestivum; parameters: key to Wheat plant response rating: 0 = no effect, 100 = complete control
Procedure, shortened: as §3

cocklebur = assay: Test B pre-/postemergence herbicide test; assay type: in vivo, Xanthium strumarium; details: for Cocklebur plant response rating: scale 0 (no effect) to 100 (complete control)
Procedure, shortened: as §4

pigweed = assay: Test B pre-/postemergence herbicide test; assay type: in vivo, Amaranthus retroflexus; details: for Pigweed plant response rating: scale 0 (no effect) to 100 (complete control)
Procedure, shortened: as §1

corn = assay: Test B pre-/postemergence herbicide test; assay type: in vivo, Zea mays; details: for Corn plant response rating: scale 0 (no effect) to 100 (complete control)
Procedure, shortened: as §1

[4] = 125 g ai/ha, 0 is no effect, 100 is complete control, preemergence
[5] = 125 g ai/ha, visual rating, postemergence

With `CCc1nn(C(C)(C)C)nc1C(=S)Nc1cccc(C(=S)N(C)C)c1` [Compound 396] the “Plant response rating (0 to 100 scale), Foxtail, Giant” value (giant foxtail; [4]) was 100, the “Foxtail, Giant plant response rating” value (giant foxtail; [5]) was 20 and the “Foxtail, Giant plant response rating” value (giant foxtail; Postemergence, 500 g ai/ha) was 30. The “Barnyardgrass plant response rating” value (barnyardgrass [1]) was 90, the “Sedge, Umbrella plant response rating” value [2] was 80 and the “Plant response rating (0 to 100 scale), Crabgrass, Large” value (large crabgrass; [4]) was 100. For the same molecule, the “Crabgrass, Large plant response rating” value (large crabgrass; [5]) was 20, the “Crabgrass, Large plant response rating” value (large crabgrass; Postemergence, 500 g ai/ha) was 20 and the “Rice plant response rating” value (rice) was 70. For the same molecule, the “Oat, Wild plant response rating” value (wild oat; [5]) was 0, the “Oat, Wild plant response rating” value (wild oat; Postemergence, 500 g ai/ha) was 30 and the “Plant response rating (0 to 100 scale), Barnyardgrass” value (barnyardgrass [3]; [4]) was 90. The “Barnyardgrass plant response rating” value (barnyardgrass [3]; [5]) was 10, the “Barnyardgrass plant response rating” value (barnyardgrass [3]; Postemergence, 500 g ai/ha) was 20 and the “Plant response rating (0 to 100 scale), Morningglory” value (morningglory; [4]) was 60. For the same molecule, the “Morningglory plant response rating” value (morningglory; [5]) was 20, the “Morningglory plant response rating” value (morningglory; Postemergence, 500 g ai/ha) was 60 and the “Ducksalad plant response rating” value (ducksalad) was 70. The “Blackgrass plant response rating” value (blackgrass; [5]) was 10, the “Blackgrass plant response rating” value (blackgrass; Postemergence, 500 g ai/ha) was 30 and the “Plant response rating (0 to 100 scale), Surinam Grass” value (Surinam grass; [4]) was 90. The “Surinam Grass plant response rating” value (Surinam grass; [5]) was 20, the “Surinam Grass plant response rating” value (Surinam grass; Postemergence, 500 g ai/ha) was 30 and the “Plant response rating (0 to 100 scale), Lambsquarters” value (lambsquarters; [4]) was 100. For the same molecule, the “Lambsquarters plant response rating” value (lambsquarters; [5]) was 80, the “Lambsquarters plant response rating” value (lambsquarters; Postemergence, 500 g ai/ha) was 100 and the “Wheat plant response rating” value (wheat; 125 g ai/ha, visual rating, scale 0 (no effect) to 100 (complete control), postemergence) was 10. For the same molecule, the “Wheat plant response rating” value (wheat; 500 g ai/ha, scale 0 to 100, 0 no effect, 100 complete control, preemergence) was 100, the “Wheat plant response rating” value (wheat; Postemergence, 500 g ai/ha, scale 0 (no effect) to 100 (complete control)) was 20 and the “Plant response rating (0 to 100 scale), Cocklebur” value (cocklebur; [4]) was 40. For the same molecule, the “Cocklebur plant response rating” value (cocklebur; [5]) was 20, the “Cocklebur plant response rating” value (cocklebur; Postemergence, 500 g ai/ha) was 60 and the “Plant response rating (0 to 100 scale), Pigweed” value (pigweed; [4]) was 90. For the same molecule, the “Pigweed plant response rating” value (pigweed; [5]) was 40, the “Pigweed plant response rating” value (pigweed; Postemergence, 500 g ai/ha) was 70 and the “Plant response rating (0 to 100 scale), Corn” value (corn; [4]) was 80. For the same molecule, the “Corn plant response rating” value (corn; [5]) was 10 and the “Corn plant response rating” value (corn; Postemergence, 500 g ai/ha) was 10.
